# According to patent US9585957B2, “Adenosine receptor agonists and antagonists to modulate T cell responses” (THE JOHNS HOPKINS UNIVERSITY, priority 2007, dated 2017):
# Columns and labels:
# B16 melanoma cells = assay: B16 melanoma lung metastases in mice treated with TA99 antibody, with or without ZM; assay type: in vivo; details: Wt mice, 200 ug TA99 on day +1 plus ZM 10 mg/kg IP twice a day from Day 0; Day +15 (FIG. 17)
# Procedure: Wt and A2a receptor null mice received 1 million B16 melanoma cells IV on day 0. Control mice received not treatment. Treated mice received 200 ug IP of TA99 antibody on days 0, 2, 5. The mice were sacrificed on Day 15 and lung mets were counted.
# Wt mice received 1 million B16 melanoma cells on Day 0. On day +1 they received either no treatment or 200 ug of TA99 antibody. Zm treated mice received 10 mg/kg IP of ZM twice a day beginning on Day 0 and continuing for the remainder of the experiment. The mice were evaluated on Day +15.
# Wt and A2a receptor null mice received 1 million B16 melanoma cells IV on day 0. Control mice received not treatment. Treated mice received 200 ug IP of TA99 antibody on days 0, 2, 5. The mice were sacrificed on Day 15 and lung metastases were counted. […] Eliminating A2a receptor activity in the mice reduced melanoma metastases by approximately 50% and treatment with the antibody reduced metastases by approximately 60%. However, when knock out mice are treated with the antibody, the level of tumor metastases dropped by approximately 80% when compared to untreated wild type, and by 50% or more when compared to either the knock out or antibody treated wild type mice.
# LAG-3 = LAG-3 upregulation in A.E7 T cells (ionomycin or PMA stimulation; CsA); assay type: cell-based; details: ionomycin alone (FIG. 3c)
# Text: FIGS. 3(a)-(f) are graphs showing that A2a receptor signaling promotes the upregulation of LAG-3^+ in vitro. […] Data are representative of 3 independent experiments. 3(c) is a graph of LAG3 upregulation in A.E7 T cells following stimulation with ionomycin or PMA. 3(d) is an image of representative Western blots for phosphor-ERK and total ERK (top and bottom respectively). […] Data are representative of 3 independent experiments. 3(e) is an image of representative Western blots for junB, and actin (top and bottom, respectively). […] Data are representative of 3 independent experiments. 3(f) is an image of representative EMSA for AP-1. […] Data are representative of 3 independent experiments.
SMILES,"reduction of average lung metastases, antibody in combination with ZM (B16 melanoma cells)",LAG-3 upregulation (LAG-3)
"Nc1nc(NCCc2ccc(O)cc2)nc2nc(-c3ccco3)nn12 [ZM, 4-(2-[7-amino-2-(2-furyl)[1,2,4]triazolo[2,3-a][1,3,5]triazin-5-ylamino]ethyl)phenol]",approximately 80%,–
C[C@H](CCC(=O)O)C[C@H](C)C[C@H](C)C(=O)/C=C(\O)[C@H](C)C[C@H](C)C/C=C/[C@@H](C)[C@@H](O)[C@@H](C)[C@@H](O)C[C@@H]1CC[C@@](C)([C@H]2CC[C@@](C)([C@@H](C)O)O2)O1 [ionomycin],–,markedly upregulated
